# Test results taken from patent US20110124614A1, “Methods And Compositions For The Treatment of Autoimmune Disorders” (priority 2008, published 2011).
# Where “and” joins values, the source holds several entries; their conditions need not be identical. Equal values may be shown once.
# Legend:
# [1] = test system: PD-1 expression in CD4^+FoxP3^+ T cells; experiment: PD-1 expression in CD4+FoxP3+ Treg cells by flow cytometry, WT mice (Example VI); assay type: in vivo, mouse; conditions: for staining intensity of PD-1 in CD4^+FoxP3^+ cells: spleen of treated WT mice; for staining intensity of PD-1 in CD4^+FoxP3^+ cells / conversion of CD4^+FoxP3^+PD-1^− cells to PD-1^+ cells: FIG. 5B
# Description: Splenocytes or lymph node cells were harvested from placebo-, E2- or G-1 treated mice after EAE induction as shown in FIG. 2A and stained for CD4, FoxP3 and PD-1. The expression levels of Pd-1 were analyzed by gating on CD4^+FoxP3^+ cells from placebo-, E2, or G-1 treated WT mice. For membrane staining, 1 million cells were stained at 4° C. in the dark with appropriate Ab dilutions in staining buffer (PBS containing 0.5% BSA and 0.02% sodium azide), Intracellular staining for FoxP3 was performed following the protocol recommended by eBioscience. Briefly, 4 million cells were surface stained following standard procedures. After washing, the cells were fixed overnight and washed twice with 0.5 ml of permeabilization buffer. The cells were co-stained for 15 min with FcBlock (Becton Dickinson, Franklin Lake., NJ) and IgG PerCp (eBioscience, San Diego, Calif.) followed 30 min later with fluorescent-labeled antibodies to FoxP3 (eBioscience, San Diego, Calif.) or isotype control. The cells were then washed twice with 2 ml of permeabilization buffer and once with 1 ml of staining buffer, and re-suspended in staining buffer. Flow cytometry data were collected on LSRII and FACSCalibur flow cytometers (BD Bioscience, Franklin Lakes, N.J.), and analyzed using FlowJo software (Tree Star, Ashland, Oreg.). Data represent 50,000-100,000 events unless otherwise noted. […] The histogram overlay compares the MFI of PD-1 in CD4^+FoxP3^+ T cells from different treatment groups. The bar charts show the average percentages of PD-1^+ CD4^+FoxP3^+ T cells and the average MFI of PD-1 in CD4^+FoxP3^+ T cells from all mice in each grip[/*P<0.05 or **P<0.01 compared to placebo control.
# [2] = test system: liver, eyes, heart, mammary gland, brain, spleen, kidney, muscle, lung; experiment: H&E organ histology in G-1 treated naive mice; assay type: in vivo, mouse; conditions: 1.8 mg G-1 treated naive mice
# Excerpt: (§1) Treatment with G-1 in viva lacked the “estrogenic effects” of E2.
# [3] = test system: cytokine secretion by splenocytes of PD-1KO immunized mice; experiment: Cytokine secretion of mMog-35-55 stimulated splenocytes, Luminex, PD-1KO mice; assay type: in vivo, mouse; conditions: G-1 treated PD-1KO mice
# Description: PD-1KO (Dr. […] One week after implantation experimental autoimmune encephalomyelitis (EAE) was induced. Splenocytes were harvested from […] cell proliferation and cytokine secretion in 48 h supernatants. (*P<0.05, or **P<0.01 compared to placebo). Lymph node and spleen cells were cultured at 4×10^6 cells/well in a 24 well flat-bottom culture plate in stimulation medium (RPMI 1640, 1% sodium pyruvate, 1% L-glutamine, 0.4% 2-β-ME, 10% FBS) with 25 μg/ml mMog-35-55 peptide for 48H. Supernatants were then harvested and stored at -80° C. until tested for cytokines. Culture supernatants were assessed for cytokine levels using a Luminex Bio-Plex mouse cytokine assay kit (BioRad, Hercules, Calif.) following the manufacturer's instructions. The following cytokines were determined in a single assay in three separate experiments: IL-1βIFN-γ, TNF-α, IL-2, IL-4, IL-5. IL-6, IL-12, IL-13, and IL-17. […] This cytokine profile was drastically altered in G-1 treated PD-1Ko mice. The decrease of Il-17 and increase of Il-6, Il-10 and IFN-γ production were abolished, whereas the reduction in IL-2 and Il-4 remained. Thus PD-1 was required for […] downregulation of IL-17 but not Il-2 and Il-4, and upregulation of IL-6, Il10 and IFN-γ.
# [4] = test system: splenocytes of PD-1KO EAE mice; experiment: Ex vivo T cell proliferation to mMOG-35-55, PD-1KO mice; assay type: in vivo, mouse; conditions: G-1 treatment, FIG. 6B
# Description: Splenocytes and lymph node cells were harvested ex-vivo from G-1 and E2 implanted mice and cultured in a 96-well flat bottom tissue culture plate at 4×10^5 cells/well in stimulation medium in the presence of APC, irradiated (2500 rad) syngenic thymocytes at a ration of 1:10 (T:APCs) wither with or without mMog 35-55 peptide at varying concentrations. The cells were incubated for 3 days at 37° C. in 7% CO2 and pulsed with 0.5 μCi of [^3H] thymidine (Perkin-Elmer, Boston, Mass.) for the final 18 h of incubation. The cells were harvested onto glass fiber filters, and incorporated radioactivity was measured by a liquid scintillation counter. The cpm values (mean±SD) were calculated from triplicate wells. Stimulation index (SI) was calculated by dividing the experimental cpm by the control cpm.
# Splenocytes from placebo and G-1 treatment groups were evaluated for T cell proliferation and cytokine secretion in 48 h supernatants.
# [5] = test system: uteri; experiment: Uterine weight (estrogenic effect); parameters: species or system mouse; conditions: G-1 treatment in vivo, FIG. 2E
# Excerpt: as §1
# [6] = test system: EAE in GPR30KO female mice; experiment: EAE clinical scoring, E2 pellets, GPR30KO mice (Example II); assay type: in vivo, mouse; conditions: E2 treated GPR30KO mice, 2.5 mg/60 day pellet
# [7] = test system: EAE in heterozygous (GPR30^+/−) female mice; conditions: mouse, in vivo
# [8] = test system: CNS infiltration and demyelination in GPR30KO EAE mice; experiment: Spinal cord histology (H&E, LFB-PAS), GPR30KO EAE mice; assay type: in vivo, mouse; conditions: E2-treated GPR30-KO mice, FIG. 1B
# Excerpt: Spinal cords were dissected out for histology. Intact spinal columns were removed and dissected after fixation in 4% paraformaldehyde, dehydrated and embedding in paraffin. To examine neuroinflammation, the sections were stained with hematoxylin and eosin (H&E). To examine demyelination, the sections were stained with Luxon fast blue plus periodic acid Schiff (LFB-PAS).
# [9] = Serum E2 level by radioimmunoassay in E2-implanted mice; assay type: in vivo, mouse; conditions: mice with 2.5 mg/60 day release E2 pellets; RIA; FIG. 3
# Description: Serum levels of E2 were determined by radioimmunoassay (RIA) after Sephadex LH-20 column chromatography (GE Healthcare Life Sciences, Piscataway, N.J.). Representative animals were bled by cardiac puncture, and the blood was allowed to clot at 4° C. overnight. The samples were centrifuged, and the sera were collected and stored at −80° C. until hormone analysis was performed. All samples were analyzed in a single assay for each hormone.
SMILES,staining intensity of PD-1 in CD4^+FoxP3^+ cells [1],"boosting PD-1 expression in CD4^+FoxP3^+ cells, compared with E2 ([1]; treated WT mice)",conversion of CD4^+FoxP3^+PD-1^− cells to PD-1^+ cells ([1]; treated WT mice),"abnormalities by H&E staining in liver, eyes, heart, mammary gland, brain, spleen, kidney, muscle or lung [2]",decrease of Il-17 production [3],increase of IFN-γ production [3],increase of Il-6 production [3],increase of Il-10 production [3],reduction in IL-2 [3],reduction in Il-4 [3],T cell proliferation to mMog-35-55 [4],weight of uteri [5],clinical EAE (in words) [6],Daily [7],Incidence [7],Mortality [7],Onset [7],clinical EAE (in words) [7],cellular infiltration and demyelination in CNS [8],serum E2 levels [9]
CC(=O)c1ccc2c(c1)C1C=CCC1C(c1cc3c(cc1Br)OCO3)N2 (stereo not shown) [G-1],strongly enhanced,even more potent than E2,converted a majority,no abnormalities,abolished,abolished,abolished,abolished,remained,remained,did not significantly change,did not significantly change,–,–,–,–,–,–,–,–
"C[C@]12CC[C@@H]3c4ccc(O)cc4CC[C@H]3[C@@H]1CC[C@@H]2O [E2, 17β estradiol]",strongly enhanced,–,converted a majority,–,–,–,–,–,–,–,–,–,delayed onset and were only partially protected from EAE,2.6 ± 0.8,4/7 and 5/10,0/7 and 0/10,20.0 ± 1.0,delayed onset and were only partially protected from EAE,"visibly present, but at a reduced level",1.5 to 2 ng/mL
